# Tests used:
# Balb/c mice = assay: In vivo expression by IV, 0.05 mg/kg luciferase RNA-LNPs, IVIS luminescence; details: Formulation No. 001, RNA No. 331; female Balb/c mice, 0.05 mg*kg−1 intravenous, 24-hours post injection
# Procedure, shortened: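 Female Balb/c mice (7-8 weeks, N=3) received 0.05 mg*kg−1 firefly-luciferase RNA-LNPs IV. Luciferin (15 mg/ml) was given IP at 24 and 72 h post-dose for IVIS whole-body luminescence. A second run imaged whole body, liver and spleen at 24 h only.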
# MCP-1 = assay: In vivo tolerability by IV: serum MCP-1 by Luminex; design: species or system C57BL/6J mice; details: Formulation No. 001, RNA No. 331, male C57BL/6J mice, 1.0 mg*kg/1 intravenous; for MCP-1 at 2 h: 2 hours post injection; for MCP-1 at 24 h: 24 hours post injection
# Procedure, shortened: (§1)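 Male C57BL/6J mice aged 6-8 weeks (N=3) received 1.0 mg*kg−1 firefly-luciferase RNA-LNPs intravenously, with PBS as negative control. Serum taken at 2 and 24 h post-injection was assayed for MCP-1 and IL-6 by Luminex.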
# Hep G2 cells [1] = assay: In vitro toxicity: Hep G2 cell viability by CellTiter-Glo; type: cell-based; details: Formulation No. 001, RNA No. 331, 1 μg/mL RNA-LNPs, 72 hours post transfection, cell only = 100%
# Protocol: 2E5 Hep G2 cells were transfected with 1 μg/mL RNA-LNPs. At 72 hours post transfection, cell viability (2-well repeat) was determined with the CellTiter-Glo® reagent kit, according to the kit protocol, measured by a luminometer. Cell only as control (100%).
# The cell viability was calculated according to the following formula: […]
# [2] = LNP size and polydispersity index (PDI) by dynamic light scattering (Zetasizer); type: physicochemical; details: for Size (nm): Formulation No. 001 (Ionizable lipid:DSPC:cholesterol:DMG-PEG2000 = 50:10:38.5:1.5, N/P 6), RNA No. 331; for PDI: Formulation No. 001, RNA No. 331
# Protocol: (§2) The LNP size and polydispersity index (PDI), determined by dynamic light scattering (DLS), and zeta potential were measured by a Zetasizer machine (Malvern). RNA concentration and encapsulation efficacy (EE %) were analyzed by the Quant-IT Ribogreen kit by calculating the percentage encapsulation at 100%—(RNA-LNPs/RNA-LNPs with Triton X-100).
# [3] = RNA encapsulation efficacy (EE %) by Quant-IT Ribogreen kit; type: physicochemical; details: LNP, Formulation No. 001, RNA No. 331
# Protocol: as §2
# IL-6 = assay: In vivo tolerability by IV: serum IL-6 by Luminex; design: species or system C57BL/6J mice; details: Formulation No. 001, RNA No. 331, male C57BL/6J mice, 1.0 mg*kg/1 intravenous; for IL-6 at 2 h: 2 hours post injection; for IL-6 at 24 h: 24 hours post injection
# Procedure, shortened: as §1
# C57BL/6J mice = assay: In vivo expression by IV, 1.0 mg/kg luciferase RNA-LNPs, whole-body and organ IVIS luminescence; details: Formulation No. 001, RNA No. 331; male C57BL/6J mice, 1.0 mg*kg−1 intravenous, 24-hours post injection
# Procedure, shortened: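 Male C57BL/6J mice, 6-8 weeks old (N=3), received 1.0 mg*kg−1 firefly-luciferase RNA-LNPs IV. At 24 h post-dose, luciferin (15 mg/ml) was given IP, and whole-body, liver, spleen, kidney, small and large intestine luminescence was imaged by IVIS.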
# Hep G2 cells [4] = assay: In vitro expression: luciferase activity in Hep G2 cells transfected with RNA-LNPs; type: cell-based; details: Formulation No. 001, RNA No. 331 (firefly-luciferase), 100 ng/mL RNA-LNPs, 72 hours post transfection
# Protocol: 2E5 Hep G2 cells were transfected with 100 ng/mL of RNA-LNPs encoding for firefly-luciferase. At 72 hours post transfection, the cells were washed and lysed. The luciferase expression (2-well repeat) was determined in the cell lysates with the luciferase assay reagent kit (Promega), according to the kit protocol, luciferase activity was measured by a luminometer.
Compound,Liver (p/s) (Mean) (Balb/c mice),Spleen (p/s) (Mean) (Balb/c mice),Whole body (p/s) (Mean) (Balb/c mice),MCP-1 at 2 h (MCP-1) [pg/mL],MCP-1 at 24 h (MCP-1) [pg/mL],In vitro cell viability (%) (Mean) (Hep G2 cells [1]),Size (nm) [2] [nm],PDI [2],EE (%) [3] [%],IL-6 at 2 h (IL-6) [pg/mL],IL-6 at 24 h (IL-6) [pg/mL],Kidney (p/s) (C57BL/6J mice),Large intestine (p/s) (C57BL/6J mice),Liver (p/s) (C57BL/6J mice),Small intestine (p/s) (C57BL/6J mice),Spleen (p/s) (C57BL/6J mice),Whole body (p/s) (C57BL/6J mice),In vitro Expression (Mean) (Hep G2 cells [4])
CCCCCCCCC(CCCCCC)C(=O)OCCCCCCCCOC(=O)NC(COC(=O)NCCN1CCCCCC1)C(=O)OCCCCCCCCCCC(=O)OCCCCCC (stereo not drawn) [Lipid 929],2.99E+08,5.00E+07,1.02E+09,783,58.6,100.37,67.82,0.01,95.55,14.7,2.1,2.14E+07,9.97E+07,3.67E+09,3.16E+08,4.12E+08,2.83E+09,2.24E+05
CCCCCCCCCC(=O)OCCCCCCCOC(=O)C(COC(=O)NCCN1CCCCC1)NC(=O)OCCCCCCCCOC(=O)C(CCCCCC)CCCCCCCC (stereo not drawn) [Lipid 933],6.92E+08,1.49E+08,2.89E+09,1240,300,95.05,75.47,0.02,92.12,68.4,8.03,6.08E+07,9.52E+07,3.90E+09,6.36E+08,5.98E+08,3.45E+09,1.26E+06
CCCCC/C=C\C/C=C\CCCCCCCCOC(=O)NC(COC(=O)NCCN1CCCCCC1)C(=O)OCCCCCC(=O)OCCCCCCCCCCC (stereo not drawn) [Lipid 939],2.92E+08,1.74E+08,1.17E+09,2440,956,95.74,104.00,0.19,90.23,4280,9.43,1.21E+07,1.70E+08,5.86E+07,4.96E+08,1.18E+08,3.50E+09,3.08E+05

# — patent publication US20260200849A1, “CATIONIC LIPIDS AND PREPARATION METHOD THEREOF” (RiboX Therapeutics HK Limited, priority 2024, published 2026)
